The target of assay [1] is T1, SHP2 C‐SH2 domain (Homo sapiens, UniProt Q06124).
T1 construct: SHP2 N-SH2 domain (1–105), C-SH2 domain (106–220), PTP domain (224–541) and; His6 (pETM22 vector) (N, cleaved yes); made in house; host or cells: E. coli BL21(DE3)
T1 sequence (Q06124 106-220): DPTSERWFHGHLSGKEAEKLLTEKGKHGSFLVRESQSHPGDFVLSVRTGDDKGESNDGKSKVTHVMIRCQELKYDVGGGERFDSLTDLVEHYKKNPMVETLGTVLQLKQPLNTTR
Put plainly: Fluorescence polarization (FP) binding assay, SHP2 C-SH2 domain. The settings on record: 100 nM FAM-labelled peptide, increasing C-SH2 protein, 50 mM HEPES pH 7.5, 150 mM NaCl, 1 mM EDTA, 0.05% Tween 20, FP at 10 min, three independent experiments in technical triplicates, read-out: K D ± SEM, C‐SH2 (FP). The method, then:
(§1) buffer and stored in 5 mL binding buffer at 4°C. His-tagged 3C protease (0.5 mg; EMBL) was added to the pooled eluted fractions and dialysed using Spectra Por Dialysis Tubing (MWCO 6-8 kDa, 23 mm; Spectrum Labs) in 1 L of binding buffer at 4°C for 3 hours, then overnight in fresh buffer. A new column was prepared by loading 2 mL Ni-NTA Agarose (Invitrogen) as a 50% slurry in EtOH. The column was washed with 10 mL H2O to remove the EtOH and equilibrated with 10 mL binding buffer. The protein/3C protease mixture was loaded onto the column and incubated for 1 hour at 4°C on a rocker. The flow through containing the protein was collected, the column was washed with 100 mL binding buffer and the 3C protease was eluted with 5 mL elution buffer. Protein purification was monitored by SDS-PAGE using NuPAGE 4-12% Bis-Tris Protein Gels (Invitrogen) run in MOPS buffer (50 mM MOPS, 50 mM Tris-HCl pH 7.7, 1 mM EDTA, 0.1% SDS) followed by Coomassie staining using Coomassie Brilliant Blue (Roth). The purified protein was dialysed into the final storage buffer (50 mM HEPES pH 7.5, 150 mM NaCl, 2 mM DTT, 20% glycerol). Aliquots were prepared and stored at -80°C until required. […]
(§2) 4. Fluorescence polarization
Fluorescence polarization (FP) was used to measure the binding of FAM-labelled peptides to the SHP2 C-SH2, SHP2 N-SH2, SHP2 PTP, CSK SH2 or Src SH2 domains. Each peptide was added to increasing concentrations of SHP2 C-SH2, SHP2 N-SH2, SHP2 PTP, CSK SH2 or Src SH2 protein in FP buffer (50 mM HEPES pH 7.5, 150 mM NaCl, 1 mM EDTA, 0.05% Tween 20) to give a final peptide […]
concentration of 100 nM in a final volume of 200 µL. For baseline subtraction, each peptide was added to FP buffer, instead of protein, with a final peptide concentration of 100 nM in a final volume of 200 µL. Samples were mixed gently then 3 x 60 µL of each sample was transferred into triplicate wells in a 96-well plate (OptiPlate-96 F Black; PerkinElmer). The FP was immediately measured on a Synergy H1 Microplate Reader (BioTek) with the excitation and emission monitored at 485 nm and 528 nm, respectively, over 30 minutes. FP values were automatically calculated by the Gen5 3.03 (BioTek) software associated with the microplate reader. Data were analysed in Excel 2016 by subtracting baseline values from FP values at 10 minutes. Data were then further analysed in GraphPad Prism 6 by plotting the baseline subtracted FP values against the protein concentration and fitting the data to a variable slope model of non-linear regression to obtain the KD values. Data are from three independent experiments, each performed in technical triplicates.
5. Isothermal titration calorimetry […]
Analysis Software (Malvern Panalytical). For the data analysis, a 1:1 binding stoichiometry between the Ac-ITSM(pTyr) and SH2 domain was assumed. ITC measurements were performed once.

For assay [2], the system named is CSK SH2 domain. Put plainly: FP binding assay, CSK SH2 domain. The conditions noted are these: 100 nM peptide, three independent experiments. The method, then:
as §1, with “The flow through containing the protein was collected, the column was washed with 100 mL binding buffer and the 3C protease was eluted with 5 mL elution buffer.” left out, “(Roth).” for “(Roth). The purified protein was dialysed into the final storage buffer (50 mM HEPES pH 7.5, 150 mM NaCl, 2 mM DTT, 20% glycerol). Aliquots were prepared and stored at -80°C until required.”
as §2
Fluorescence polarization (FP) was used to measure the binding of FAM-labelled peptides to the SHP2 C-SH2, SHP2 N-SH2, SHP2 PTP, CSK SH2 or Src SH2 domains. […]
concentration of 100 nM in a final volume of 200 µL. […] The FP was immediately measured on a Synergy H1 Microplate Reader (BioTek) with the excitation and emission monitored at 485 nm and 528 nm, respectively, over 30 minutes. FP values were automatically calculated by the Gen5 3.03 (BioTek) software associated with the microplate reader. […]

Residues, ends and D or L forms follow the SMILES beside them. *: point of attachment. 5FAM = O=C1OC2(c3ccc(O)cc3Oc3cc(O)ccc32)c2ccc(C(=O)*)cc21; X1 = O=C(O)C(C(=O)O)*

1 molecule from paper PMC12118337, “Development of a Peptide Inhibitor Targeting the C‐SH2 Domain of the SHP2 Phosphatase” (Chembiochem, 2025) can be followed below.

Turning to `CC[C@H](C)[C@H](NC(=O)[C@@H](NC(=O)[C@H](C)NC(=O)[C@H](Cc1ccc(OC(C(=O)O)C(=O)O)cc1)NC(=O)[C@H](CCC(=O)O)NC(=O)[C@@H](NC(=O)[C@H](CCC(N)=O)NC(=O)c1ccc2c(c1)C(=O)OC21c2ccc(O)cc2Oc2cc(O)ccc21)[C@@H](C)O)[C@@H](C)O)C(=O)N[C@@H](CCCCN)C(=O)N[C@@H](Cc1c[nH]cn1)C(=O)N1CCC[C@H]1C(N)=O` [peptide 26] (5FAM-QTEY(X1)ATIKHP-NH2), the Kd in assay [1] was 1600 ± 388 nM. In assay [2], the “binding to CSK SH2 domain compared to SHP2 C‐SH2 domain” value is reported as “at least two orders of magnitude weaker”.
